# Like-named read-outs stand apart in the source and are kept apart here.
# How the values were obtained:
# [1] = system: collagen IV; conditions: mean of 12 healthy subjects, 4×2 g CHP per day over 14 days
# Excerpt: CHP was repeatedly administered over 14 days, using 4×2 g of CHP per day.
# [2] = system: α-glutathione S transferase; conditions: mean of 12 healthy subjects, 4×2.0 g CHP/day over 14 days
structure (smiles),measurement,setting,value
"O=C(O)[C@@H]1C[C@@H](O)CN1 (relative stereo) [CHP, cis-hydroxy-L-proline]","Concentration of collagen IV in serum, MEAN",[1]; day 0,115.39
same,"Concentration of collagen IV in serum, MEAN",[1]; day 7,93.03
same,"Concentration of collagen IV in serum, MEAN",[1]; day 13,99.79
same,"Concentration of collagen IV in serum, MEAN",[1]; day 13.25,92.87
same,"Concentration of collagen IV in serum, MEAN",[1]; day 14,97.77
same,"Concentration of collagen IV in serum, MEAN",[1]; day 17,93.45
same,"Concentration of α-glutathione S transferase in serum, MEAN",[2]; day 0,0.46
same,"Concentration of α-glutathione S transferase in serum, MEAN",[2]; day 7,0.37
same,"Concentration of α-glutathione S transferase in serum, MEAN",[2]; day 13,0.26
same,"Concentration of α-glutathione S transferase in serum, MEAN",[2]; day 13.25,0.20
same,"Concentration of α-glutathione S transferase in serum, MEAN",[2]; day 14,0.21
same,"Concentration of α-glutathione S transferase in serum, MEAN",[2]; day 17,0.18
